Data: patent US8486459B2 (Cremer Oleo GmbH & Co. KG, priority 2011, dated 2013)

Key:
[1] = test system: commensal microflora in the oral cavity; settings: in vivo; cited from earlier work
certain microorganisms = test: Comparative antimicrobial experiments, hydrogen peroxide alone vs enriched extract; type: cell-based; settings: 0.05 wt % expressed as H2O2
[2] = test system: L5178Y leukemia lymphoma mouse cells; settings: cited from earlier work
[3] = test system: chloroquine-resistant strain K1 of Plasmodium falciparum; settings: in vitro; cited from earlier work
Escherichia coli = settings: in vitro; cited from earlier work
Pseudomonas aeruginosa = settings: in vitro; cited from earlier work
Staphylococcus aureus = settings: in vitro; cited from earlier work
Candida albicans = settings: in vitro; cited from earlier work
Bacillus subtilis = settings: in vitro; cited from earlier work
Micrococcus luteus = settings: in vitro; cited from earlier work

Structure (SMILES): [H]/N=C(\N/C(=N/[H])NCCCCCCNC(=N)NC(=N)Nc1ccc(Cl)cc1)Nc1ccc(Cl)cc1 [chlorhexidine]
- effect on the commensal microflora in the oral cavity [1]: extremely harmful effect

Structure (SMILES): OO [hydrogen peroxide]
- antimicrobial effect (certain microorganisms): did not yield the antimicrobial properties
- effect on the commensal microflora in the oral cavity [1]: extremely harmful effect

Structure (SMILES): COc1cc(O)c(-c2c(C)cc(O)c3c2C(=O)c2ccc([C@H]4c5cccc(O)c5C(=O)c5c(O)cc(C)c(-c6c(O)cc(OC)c(C(C)=O)c6O)c54)c(O)c2C3=O)c(O)c1C(C)=O [joziknipholone A]
- effect against L5178Y cells [2]: moderate effect
- effect against Plasmodium falciparum K1 [3]: exhibited an effect

Structure (SMILES): COc1cc(O)c(-c2c(C)cc(O)c3c2C(=O)c2cccc(O)c2C3=O)c(O)c1C(C)=O [knipholone]
- antimicrobial effect (Escherichia coli): ineffective
- antimicrobial effect (Pseudomonas aeruginosa): ineffective
- antimicrobial effect (Staphylococcus aureus): ineffective
- antimicrobial effect (Candida albicans): ineffective
- antimicrobial effect (Bacillus subtilis): ineffective
- antimicrobial effect (Micrococcus luteus): ineffective
